Structures can show the parent of a compound that is named as a salt.
Legend:
[1] = RP, Waters ACQUITY UPLC BEH C18, 100 × 2.1 mm, 1.7 µm; A: water + 0.1% formic acid, pH 3; B: 80% acetonitrile + 20% acetone + 0.1% formic acid, pH 3; gradient (min/%B) 0/0 6/100; conditions: stereoisomer not certain
[2] = RP, Waters ACQUITY UPLC HSS T3, 100 × 2.1 mm, 1.8 µm; A: water + 0.1% formic acid, pH 3; B: 30% methanol + 70% acetonitrile + 0.1% formic acid, pH 3; gradient (min/%B) 0.0/5 1.0/8 2.0/15 3.0/40 4.0/70 4.5/100 5.0/100 6.4/100 6.6/5.0 6.8/5.0 7.0/5.0; conditions: stereoisomer not certain

Compound	LC retention time [1]	LC retention time [2]
Cn1c(=O)[nH]c2ncn(C)c2c1=O [1,7-dimethylxanthine]	1.45 min	2.56 min
NC(=O)NCCCC(N)C(=O)O (stereo unspecified) [Citrulline]	0.575 min	0.47 min
Cn1c(=O)[nH]c2[nH]c(=O)[nH]c2c1=O [1-methyluric acid]	1.28 min	1.27 min
CC(=O)Nc1ccc(C(=O)O)cc1 [4-acetamidobenzoic acid]	1.71 min	3.23 min
COc1cc(C(=O)O)ccc1O [Vanillic acid]	1.78 min	3.17 min
O=C(O)C(O)Cc1ccc(O)cc1 (stereo not drawn) [(DL)-p-hydroxyphenyllactic acid]	1.54 min	2.66 min
Nc1ncnc2c1ncn2C1OC(CO)C(O)C1O (stereo unspecified) [Adenosine]	1.34 min	0.857 min
O=C(O)CNC(=O)c1ccccc1 [Hippuric acid]	1.77 min	3.1 min
O=C(O)CCCC(=O)O [Glutaric acid]	1.37 min	1.32 min
CN1CC(=O)NC1=N [Creatinine]	0.572 min	0.467 min
CC(C)(O)CC(=O)O [3-hydroxy-3-methyl butanoic acid]	1.44 min	1.63 min
O=c1[nH]cc(C2OC(CO)C(O)C2O)c(=O)[nH]1 (stereo unspecified)	1.16 min	0.743 min
CC1NC(=NCCCC(N)C(=O)O)NC1=O (stereo unspecified)	0.585 min	0.484 min
CC(CCC(=O)O)C1CCC2C3CCC4CC(O)CCC4(C)C3CC(O)C12C (stereo unspecified) [Deoxycholic acid]	3.94 min	4.62 min
Cc1cc2nc3c(=O)[nH]c(=O)nc-3n(CC(O)C(O)C(O)CO)c2cc1C (stereo unspecified) [Riboflavin]	1.68 min	3.38 min
CC(C)(CO)C(O)C(=O)NCCC(=O)NCCSSCCNC(=O)CCNC(=O)C(O)C(C)(C)CO (stereo not drawn) [d-pantethine]	1.87 min	3.44 min

Compound	LC retention time [1]	LC retention time [2]
CC1(O)CCOC(=O)C1 (stereo unspecified) [Mevalonolactone]	1.38 min	1.19 min
Nc1ccn(C2OC(CO)C(O)C2O)c(=O)n1 (stereo unspecified) [cytidine]	0.749 min	0.533 min
Cn1cnc2c(ncn2C2OC(CO)C(O)C2O)c1=N (stereo unspecified) [1-methyladenosine]	1.3 min	1.63 min
CNC(C)(C)C(=O)O [alfa-(methylamino)isobutyric acid]	0.712 min	0.531 min
CC(NCCCCC(N)C(=O)O)C(=O)O (stereo unspecified) [CEL]	0.571 min	0.459 min
NC(CCCNC1=NCC(=O)N1)C(=O)O (stereo unspecified)	0.561 min	0.459 min
CN1C(=O)CCC1c1cccnc1 (single isomer, unassigned; (-)) [(-)-Cotinine]	1.26 min	0.793 min
NCCS(=O)(=O)O [Taurine]	0.556 min	0.47 min
O=C(O)C1CCCN1 (stereo unspecified) [Proline]	0.626 min	0.506 min
Cc1cn(C2OC(CO)C(O)C2O)c(=O)nc1N (stereo unspecified) [5-methylcytidine]	1.28 min	1.18 min
CC12CCC(=O)C=C1CCC1C2C(=O)CC2(C)C1CCC2(O)C(=O)CO (stereo unspecified) [Cortisone]	2.61 min	3.84 min
OCC1OC(OC2C(CO)OC(O)C(O)C2O)C(O)C(O)C1O (stereo unspecified) [alfa-lactose monohydrate]	0.6 min	0.476 min
Cn1c(=O)c2c(ncn2C)n(C)c1=O [Caffeine]	1.65 min	3.13 min
CC(CCC(=O)O)C1CCC2C3C(O)CC4CC(O)CCC4(C)C3CC(O)C12C (stereo unspecified) [Cholic acid]	3.4 min	4.46 min
CN(C)CC(=O)O [N,N-dimethylglycine]	0.572 min	0.47 min

The remaining lines, values ahead:

LC retention time [1]	LC retention time [2]	Compound
2.76 min	3.88 min	O=c1c(O)c(-c2ccc(O)cc2)oc2cc(O)cc(O)c12 [kaempferol]
2.63 min	3.87 min	CC12CCC(=O)C=C1CCC1C2C(O)CC2(C)C1CCC2(O)C(=O)CO (stereo unspecified) [hydrocortisone, cortisol]
2.08 min	3.49 min	O=C(O)C(O)Cc1ccccc1 (stereo unspecified) [phenyllactic acid]
0.882 min	0.706 min	O=c1[nH]cnc2nc[nH]c12 [hypoxanthine]
2.03 min	3.45 min	COc1cc(C=O)ccc1O [vanillin]
0.51 min	0.404 min	NCCCCC(N)C(=O)O (stereo not drawn) [l-lysine]
3.46 min	4.44 min	CC(CCC(=O)NCC(=O)O)C1CCC2C3CCC4CC(O)CCC4(C)C3CC(O)C12C (stereo unspecified) [glycodeoxycholic acid]
0.719 min	0.588 min	O=C([O-])c1cc(=O)[nH]c(=O)[nH]1 [orotic acid]
0.546 min	0.447 min	NC(CSSCC(N)C(=O)O)C(=O)O (stereo not drawn) [l-cystine]
0.571 min	0.465 min	OC1C(O)C(O)C(O)C(O)C1O (stereo unspecified) [myo-inositol]
1.29 min	1.2 min	Nc1ccc(C(=O)NCC(=O)O)cc1 [p-aminohippuric acid]
2.13 min	3.52 min	O=C(O)C(O)Cc1c[nH]c2ccccc12 (racemic) [dl-3-indolelactic acid]
0.517 min	0.415 min	NCCCC(N)C(=O)O (stereo not drawn) [l-ornithine monohydrochloride]
0.969 min	0.722 min	NC(=O)c1cccnc1 [nicotinamide]
1.5 min	2.09 min	Nc1ccc(C(=O)O)cc1 [paba]
1.37 min	2.14 min	Cn1cnc2c1c(=O)[nH]c(=O)n2C [theobromine]
3.46 min	4.23 min	CC(CCC(=O)NCC(=O)O)C1CCC2C3C(O)CC4CC(O)CCC4(C)C3CCC12C (stereo unspecified) [glycochenodeoxycholic acid]
3.33 min	4.46 min	CC(CCC(=O)NCCS(=O)(=O)O)C1CCC2C3CCC4CC(O)CCC4(C)C3CC(O)C12C (stereo unspecified) [taurodeoxycholic acid]
4.4 min	4.7 min	CCCCCCCCCCCCCCCC(=O)OCC(O)COP(=O)([O-])OCC[N+](C)(C)C (stereo unspecified) [lysoPC(16:0/0:0)]
1.7 min	2.95 min	O=C(O)C1OC(Oc2c[nH]c3ccccc23)C(O)C(O)C1O (stereo not drawn) [indoxyl beta-d-glucuronide cyclohexylammonium salt]
3.56 min	4.61 min	CC(CCC(=O)NCC(=O)O)C1CCC2C3CCC4CC(O)CCC4(C)C3CCC12C (stereo unspecified) [glycolithocholic acid]
1.39 min	1.46 min	CC(=O)CCC(=O)O [levulinic acid]

— the RepoRT retention time repository (doi:10.1016/j.aca.2011.12.065)
